A value given as a limit tells only on which side of the number the result lay.

T1 sequence (P31749 whole entry E17K): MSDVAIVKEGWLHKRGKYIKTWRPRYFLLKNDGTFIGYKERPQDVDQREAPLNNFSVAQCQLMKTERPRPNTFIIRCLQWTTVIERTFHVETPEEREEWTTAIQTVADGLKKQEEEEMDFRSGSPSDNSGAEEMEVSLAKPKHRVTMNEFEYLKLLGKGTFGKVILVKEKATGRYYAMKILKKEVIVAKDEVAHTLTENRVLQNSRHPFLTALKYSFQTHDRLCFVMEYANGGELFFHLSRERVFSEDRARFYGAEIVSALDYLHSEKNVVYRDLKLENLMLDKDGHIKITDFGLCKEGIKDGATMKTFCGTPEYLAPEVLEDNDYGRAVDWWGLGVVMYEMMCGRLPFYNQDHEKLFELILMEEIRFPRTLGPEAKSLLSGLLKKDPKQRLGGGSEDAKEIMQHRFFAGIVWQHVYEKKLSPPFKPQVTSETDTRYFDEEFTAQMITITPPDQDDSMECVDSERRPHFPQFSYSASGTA

The first test has as its target T1, full length AKT E17K (Homo sapiens, UniProt P31749, E17K).
T1 construct: host or cells: HEK-293 (ATCC CRL-1573)
Kind of test: NanoBRET Target Engagement (TE) Assay. The format is cell-based. To be noted: competitive displacement of tracer in cells, read-out: AKT1 E17K IC50. An outline of the steps:
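Compound and tracer incubated 2 h before luminescence at donor 450 nm and acceptor 600 nm, with extracellular signal inhibited. EC50 by sigmoidal variable-slope regression.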
(Bioluminescence resonance energy transfer reports proximity on the nanometre scale.)
As a reminder, the IC50 is the concentration that inhibits the measured activity by half. As for `CN1CCN(c2ccc3nc(-c4cccnc4N)n(-c4ccc(CN5CCC(Nc6ccnc(C#N)n6)CC5)cc4)c3n2)CCC1=O` [Example 346, 4-((1-(4-(2-(2-Aminopyridin-3-yl)-5-(4-methyl-5-oxo-1,4-diazepan-1-yl)-3H-imidazo[4,5-b]pyridin-3-yl)benzyl)piperidin-4-yl)amino)pyrimidine-2-carbonitrile], the IC50 lay within 60 to 600 nM. Same read-out and setting: as for `Cc1cc2nc(-c3cccnc3N)n(-c3ccc(CN4CCC(Nc5ccnc(C#N)n5)CC4)cc3)c2nc1-c1ccc(F)cc1` [Example 499, 4-((1-(4-(2-(2-aminopyridin-3-yl)-5-(4-fluorophenyl)-6-methyl-3H-imidazo[4,5-b]pyridin-3-yl)benzyl)piperidin-4-yl)amino)pyrimidine-2-carbonitrile], the figure is below 15 nM; as for `N#Cc1nccc(N2CC3(CCN(Cc4ccc(-n5c(-c6cccnc6N)nc6ccc(-c7ccccc7)nc65)cc4)CC3)C2)n1` [Example 361, 4-(7-(4-(2-(2-Aminopyridin-3-yl)-5-phenyl-3H-imidazo[4,5-b]pyridin-3-yl)benzyl)-2,7-diazaspiro[3.5]nonan-2-yl)pyrimidine-2-carbonitrile], below 15 nM; as for `N#Cc1nccc(NC2CCN(Cc3ccc(-n4c(-c5cccnc5N)nc5ccc(-c6cccnc6C#N)nc54)cc3)CC2)n1` [Example 409, 4-((1-(4-(2-(2-Aminopyridin-3-yl)-5-(2-cyanopyridin-3-yl)-3H-imidazo[4,5-b]pyridin-3-yl)benzyl)piperidin-4-yl)amino)pyrimidine-2-carbonitrile], below 15 nM. Turning to `CC(C)C(=O)Nc1cccc(-c2ccc3nc(-c4cccnc4N)n(-c4ccc(CN5CCC(Nc6ccnc(C#N)n6)CC5)cc4)c3n2)c1` [Example 518, N-(3-(2-(2-Aminopyridin-3-yl)-3-(4-((4-((2-cyanopyrimidin-4-yl)amino)piperidin-1-yl)methyl)phenyl)-3H-imidazo[4,5-b]pyridin-5-yl)phenyl)isobutyramide], the IC50 was below 15 nM.

Staying with this test, now noted: competitive tracer displacement in living cells, read-out: AKT1 E17K IC50.
`N#Cc1nccc(C(=O)NC2C3CCC2CN(Cc2ccc(-n4c(-c5cccnc5N)nc5ccc(-c6ccccc6)nc54)cc2)C3)n1` (stereo not shown) [Example 229, N-(3-(4-(2-(2-aminopyridin-3-yl)-5-phenyl-3H-imidazo[4,5-b]pyridin-3-yl)benzyl)-3-azabicyclo[3.2.1]octan-8-yl)-2-cyanopyrimidine-4-carboxamide]: the IC50 lay within 15 to 60 nM. Still for that read-out and setting: as for `CC(=O)Nc1cccc(-c2ccc3nc(-c4cccnc4N)n(-c4ccc(CN5CCN(c6ccnc(C#N)n6)CC5)cc4)c3n2)c1` [Example 44, N-(3-(2-(2-Aminopyridin-3-yl)-3-(4-((4-(2-cyanopyrimidin-4-yl)piperazin-1-yl)methyl)phenyl)-3H-imidazo[4,5-b]pyridin-5-yl)phenyl)acetamide], the figure is below 15 nM. Still for that read-out and setting: as for `N#Cc1cncnc1C(=O)N1CCN(Cc2ccc(-n3c(-c4cccnc4N)nc4ccc(-c5ccccc5)nc43)cc2)CC1` [Example 72, 4-(4-(4-(2-(2-Aminopyridin-3-yl)-5-phenyl-3H-imidazo[4,5-b]pyridin-3-yl)benzyl)piperazine-1-carbonyl)pyrimidine-5-carbonitrile], the figure is 600 to 10000 nM. Same read-out and setting: as for `N#Cc1cc(NC2C3CCC2CN(Cc2ccc(-n4c(-c5cccnc5N)nc5ccc(-c6ccccc6)nc54)cc2)C3)ncn1` (stereo not shown) [Example 202, 6-((3-(4-(2-(2-Aminopyridin-3-yl)-5-phenyl-3H-imidazo[4,5-b]pyridin-3-yl)benzyl)-3-azabicyclo[3.2.1]octan-8-yl)amino)pyrimidine-4-carbonitrile], the figure is 600 to 10000 nM; as for `N#Cc1ccc(NC2CCN(Cc3ccc(-n4c(-c5cccnc5N)nc5ccc(-c6ccccc6)nc54)cc3)CC2)cn1` [Example 84, 5-((1-(4-(2-(2-Aminopyridin-3-yl)-5-phenyl-3H-imidazo[4,5-b]pyridin-3-yl)benzyl)piperidin-4-yl)amino)picolinonitrile], 15 to 60 nM.
